Measured values taken from publication PMC7688903 (Frontiers in Microbiology, 2020).
Converted amounts (≈) assume the structure as drawn. “Also recorded” adds a separate entry of the source. Where a SMILES comes first, the peptide text is derived from it. Where no end group is shown, it is not given here. [ ]: non-standard residue; d: D form. 2Thi = N[C@@H](Cc1cccs1)C(=O)O

What was measured:
[1] = plasma from healthy volunteers; conditions: human, 37°C, up to 36 h
[2] = tested on: Trypsin; assay: trypsin in 0.1 M NH4HCO3 buffer (pH 8.2); conditions: 37°C, up to 24 h
[3] = tested on: E. coli ATCC 25922; type: cell-based, Escherichia coli; conditions: ATCC 25922, 20 h
Method: (§1) The antimicrobial activities of the peptides were tested against E. coli ATCC 25922, P. aeruginosa ATCC 27853, carbapenem-resistant P. aeruginosa SIPI-012, A. baumannii ATCC 19606, carbapenem-resistant A. baumannii SIPI-025, S. aureus ATCC 25923, and C. albicans ATCC 10231. The minimum inhibitory concentration (MIC) values were determined using the microdilution method according to Clinical and Laboratory Standards Institute guidelines ([CLSI, 2008], [2012]). The peptides were dissolved in 10 mM PB to a concentration of 1280 μg/mL as stock solutions.
(§2) For inoculum preparation of bacteria, morphologically similar colonies selected from fresh MH agar plates were transferred using a loop into approximately 10 mL of MH broth in a capped test tube and vortexed. The suspension was adjusted with MH broth to achieve a turbidity equivalent to a 0.5 McFarland standard (BaSO4 solution prepared spectrophotometrically). A working suspension was prepared by making a 1:15 dilution followed by a 1:20 dilution of the stock suspension with MH broth medium to obtain approximately 5 × 10^5 CFU/mL. For inoculum preparation of yeast, five fresh colonies of approximately 1 mm diameter were picked from 24-hour-old cultures of C. albicans and suspended in 5 mL of sterile 0.85% saline. The resulting suspension was vortexed and the cell density was adjusted by adding sufficient sterile saline to achieve a turbidity equivalent to a 0.5 McFarland standard. A working suspension was prepared by making a 1:100 dilution followed by a 1:20 dilution of the stock suspension with RPMI 1640 broth medium to obtain 0.5 × 10^3 to 2.5 × 10^3 CFU/mL. Intermediate twofold dilutions of the peptides were prepared in MH broth and RPMI 1640 medium, and 90 μL aliquots were added to each well in addition to 10 μL of the inoculum prepared above.
(§3) Each plate included a growth control well and a sterility (uninoculated) control well. Colistin, vancomycin hydrochloride, and amphotericin B were used as positive controls for gram-negative bacteria, gram-positive bacteria, and fungi, respectively. The bacterial and fungal plates were incubated at 37°C for 20 h and 35°C for 48 h, respectively, both under ambient atmosphere. The inhibition of microbial growth was assessed visually. The MICs were determined from independent triplicate assays.

[4] = tested on: P. aeruginosa ATCC 27853; type: cell-based, Pseudomonas aeruginosa; conditions: ATCC 27853, 20 h
Method: as §1, §2, §3

[5] = tested on: carbapenem-resistant P. aeruginosa (CRPA) SIPI-012; type: cell-based, Pseudomonas aeruginosa; conditions: carbapenem-resistant (CRPA) SIPI-012, 20 h
Method: as §1, §2, §3

[6] = tested on: A. baumannii ATCC 19606; type: cell-based, Acinetobacter baumannii; conditions: ATCC 19606, 20 h
Method: as §1, §2, §3

[7] = tested on: carbapenem-resistant A. baumannii (CRAB) SIPI-025; type: cell-based, Acinetobacter baumannii; conditions: carbapenem-resistant (CRAB) SIPI-025, 20 h
Method: as §1, §2, §3

[8] = tested on: S. aureus ATCC 25923; assay: microbe, parasite or virus in culture; type: cell-based, Staphylococcus aureus; conditions: ATCC 25923, 20 h
Method: as §1, §2, §3

[9] = tested on: C. albicans ATCC 10231; assay: microbe, parasite or virus in culture; type: cell-based, Candida albicans; conditions: ATCC 10231, 48 h
Method: as §1, §2, §3

[10] = tested on: proteases secreted by S. aureus ATCC 25923; assay: in vitro; conditions: Staphylococcus aureus, S. aureus ATCC 25923 culture supernatant, pH 8
Method: The stabilities of the peptides toward proteases secreted by E. coli ATCC 25922, P. aeruginosa ATCC 27853, A. baumannii ATCC 19606, S. aureus ATCC 25923, and C. albicans ATCC 10231 were also examined. Microbial supernatants were prepared by resuspending single colonies of each strain in 20 mL of an appropriate culture medium followed by incubation at 37°C overnight. MH broth and 2% tryptone/2% dextrose were used as the culture media for bacteria and yeast, respectively. Each culture was then centrifuged at 12,000 × g for 10 min and the supernatant was adjusted to pH 8.0 with HCl or NaOH and then filtered through a 0.22 μm sterile filter membrane ([Zaet et al., 2017]). The peptides were then dissolved in the filtered supernatants to a concentration of 0.5 mg/mL, and the peptide-free supernatants were used as negative controls. The samples were incubated at 37°C for 24 h in a water bath and then analyzed by RP-HPLC as described above.

[11] = tested on: human erythrocytes; assay: Hemolytic activity assay; type: cell-based; conditions: human RBC in PB, 37°C, 1 h, OD420, total lysis control 0.1% SDS, three technical replicates
Method: Whole blood was obtained from a healthy volunteer. The red blood cells (RBC) were then centrifuged (800 × g, 10 min), washed twice with PB, resuspended in 1 mL of PB, and incubated with various concentrations of the peptides (32–128 μM) at 37°C for 1 h. As a positive control, total lysis of the RBC was accomplished by incubation with 0.1% SDS. For each condition, three technical replicates were performed. After incubation, the RBC were centrifuged at 800 × g for 10 min and the amount of hemoglobin released into the supernatant was determined by measuring the optical density OD420 using a SpectraMax i3x microplate reader (Molecular Devices) ([Zaet et al., 2017]).

[12] = tested on: RAW 264.7 cells; assay: Cell viability assay (MTT); type: cell-based, mouse; conditions: 1–128 μM peptide in DMEM with 4% FBS, 42 h, 595 nm, triplicate
Method: The peptides were dissolved in ddH2O to a concentration of 256 μM. RAW 264.7 cells were cultured in 100 μL of DMEM containing 10% FBS and seeded at a density of 1 × 10^4 cells in a 96-well culture plate. The plate was incubated at 37°C under 5% CO2 atmosphere overnight. After attaining 80% confluency, the cells were treated with various concentrations of the peptides (1–128 μM) dissolved in DMEM containing 4% FBS for 42 h. Cytotoxicity was determined using the MTT tetrazolium reduction assay and quantified spectrophotometrically at 595 nm using a SpectraMax i3x microplate reader. The cell viability was calculated with respect to control samples treated only with DMEM containing 4% FBS ([Khara et al., 2016]). Each test was done in triplicate and the concentration required for 50% inhibition of viability (IC50) was determined.

[13] = tested on: human plasma proteases; assay: in vitro
Method: The peptides were mixed with plasma from healthy volunteers to a final concentration of 0.1 mg/mL and incubated at 37°C. Aliquots (20 or 40 μL) were removed after 0, 2, 4, 6, 8, 12, 24, and 36 h, mixed with 0.05% TFA to a final concentration of 0.01 mg/mL, and incubated on ice for 10 min. After centrifugation (12,000 × g, 5 min), the supernatant was stored at −20°C. The samples were analyzed as described in section “Hydrophobicity” and quantified as described in section “Stability Toward Tryptic Degradation.” All stability tests were performed at least in triplicate. The identities of the metabolites after 12 h of degradation by plasma proteases were determined by LC-MS on a Waters Acquity UPLC-QDa system.

Compound: KRLFKRLFKYLRRF
- fragment found [1]: (K) YLRRF 10–14, major, 12 h; also recorded: (K) RLFKRLFKYLRRF 2–14, major, 12 h
- fragment found [2]: (R) RF 13–14, major, 18 h; also recorded: (K) YLRR (F) 10–13, major, 18 h; also recorded: (R) F 14, major, 18 h; also recorded: (K) YLR (R) 10–12, major, 18 h

Compound: DabHorLFDabDabLLDabYLRDabF
- fragment found [1]: (Hor) LFDabDabLLDabYLRDabF, major, 12 h
- fragment found [2]: (Dab) YLRDab (F) 10–13, major, 18 h; also recorded: (Dab) DabLLDabYLRDab (F) 6–13, major, 18 h; also recorded: (Hor) LFDabDabLLDabYLR (Dab) 3–12, major, 18 h; also recorded: (Dab) HorLFDabDabLLDab (Y) 2–9, major, 18 h; also recorded: DabHorLFDabDabLLDabYLR (Dab) 1–12, major, 18 h

Compound: DabHorLFDabDabLLDabYLHorDabF
- fragment found [1]: (Hor) LFDabDabLLDabYLHorDabF 3–14, major, 12 h; also recorded: (Dab) HorLFDabDabLLDabYLHorDabF 2–14, major, 12 h
- fragment found [2]: (Dab) HorLFDab (Dab) 2–5, major, 18 h; also recorded: (Dab) HorLFDabDabLLDab (Y) 2–9, major, 18 h

Compound: KRL[2Thi]KKLLKYLRK[2Thi]
- fragment found [1]: (R) LThiKKLLKYLRKThi 3–14, major, 12 h; also recorded: (K) RLThiKKLLKYLRKThi 2–14, major, 12 h
- fragment found [2]: (K) Thi 14, major, 18 h; also recorded: (R) LThiKK (L) 3–6, major, 18 h; also recorded: (K) KLLK (Y) 6–9, major, 18 h; also recorded: (K) LLK (Y) 7–9, major, 18 h; also recorded: (K) YLR (K) 10–12, major, 18 h; also recorded: (R) LThiK (K) 3–5, major, 18 h

Compound: DabRLThiDapDabLLDabYLHorDabF
- fragment found [1]: (R) LThiDapDabLLDabYLHorDab F 3–14, major, 12 h; also recorded: (Dab) RLThiDapDabLLDabYLHorDabF 2–14, major, 12 h
- fragment found [2]: (Dab) RLThiDapDabLLDab (Y) 2–9, major, 18 h; also recorded: (R) LThiDapDabLLDabYLHor (Dab) 3–12, major, 18 h

Compound: CC(C)C[C@H](NC(=O)[C@H](CCCCN)NC(=O)[C@H](CCCCN)NC(=O)[C@H](Cc1ccccc1)NC(=O)[C@H](CC(C)C)NC(=O)[C@H](CCCNC(=N)N)NC(=O)[C@@H](N)CCCCN)C(=O)N[C@@H](CC(C)C)C(=O)N[C@@H](CCCCN)C(=O)N[C@@H](Cc1ccc(O)cc1)C(=O)N[C@@H](CC(C)C)C(=O)N[C@@H](CCCNC(=N)N)C(=O)N[C@H](CCCCN)C(=O)N[C@@H](Cc1ccccc1)C(N)=O [DP03] (H-KRLFKKLLKYLR[dK]F-NH2)
- MIC [3]: 1 µg/mL (≈ 0.532 µM)
- MIC [4]: 1 µg/mL (≈ 0.532 µM)
- MIC [5]: 8 µg/mL (≈ 4.25 µM)
- MIC [6]: 2 µg/mL (≈ 1.06 µM)
- MIC [7]: 2 µg/mL (≈ 1.06 µM)
- MIC [8]: 1 µg/mL (≈ 0.532 µM)
- MIC [9]: 4 µg/mL (≈ 2.13 µM)
- remaining at 24 h, 0.5 mg/mL [10]: 73.5 ± 4.83%
- Hemolysis rate (%) ([11]; 64 μM): 41.96 ± 4.14%
- Hemolysis rate (%) ([11]; 128 μM): 51.55 ± 3.89%
- IC50 [12]: 45 ± 5.96 µM
- metabolised at 2 h, 0.1 mg/mL [13]: > 40%
- metabolised at 4 h, 0.1 mg/mL [13]: > 50%

Compound: CC(C)C[C@H](NC(=O)[C@H](Cc1ccc(O)cc1)NC(=O)[C@H](CCCCN)NC(=O)[C@H](CC(C)C)NC(=O)[C@H](CC(C)C)NC(=O)[C@@H](CCCCN)NC(=O)[C@@H](CCCCN)NC(=O)[C@H](Cc1ccccc1)NC(=O)[C@H](CC(C)C)NC(=O)[C@H](CCCNC(=N)N)NC(=O)[C@@H](N)CCCCN)C(=O)N[C@@H](CCCNC(=N)N)C(=O)N[C@H](CCCCN)C(=O)N[C@@H](Cc1ccccc1)C(N)=O [DP04] (H-KRLF[dK][dK]LLKYLR[dK]F-NH2)
- MIC [3]: 1 µg/mL (≈ 0.532 µM)
- MIC [4]: 1 µg/mL (≈ 0.532 µM)
- MIC [5]: 4 µg/mL (≈ 2.13 µM)
- MIC [6]: 2 µg/mL (≈ 1.06 µM)
- MIC [7]: 1 µg/mL (≈ 0.532 µM)
- MIC [8]: 0.5 µg/mL (≈ 0.266 µM)
- MIC [9]: 4 µg/mL (≈ 2.13 µM)
- remaining at 24 h, 0.5 mg/mL [10]: 63.7 ± 8.1%
- Hemolysis rate (%) ([11]; 64 μM): 38.84 ± 1.61%
- Hemolysis rate (%) ([11]; 128 μM): 58.26 ± 1.84%
- IC50 [12]: 34.7 ± 3.69 µM
- metabolised at 2 h, 0.1 mg/mL [13]: > 40%
- metabolised at 4 h, 0.1 mg/mL [13]: > 50%
